Data set [1] is described as follows: Partition coefficient of the compound, log P. Type of data set: physicochemical. The following applies: octanol/water.
The target in the next data set is T1, Caspase-1 (Homo sapiens, UniProt P29466).
T1 sequence (P29466 whole entry): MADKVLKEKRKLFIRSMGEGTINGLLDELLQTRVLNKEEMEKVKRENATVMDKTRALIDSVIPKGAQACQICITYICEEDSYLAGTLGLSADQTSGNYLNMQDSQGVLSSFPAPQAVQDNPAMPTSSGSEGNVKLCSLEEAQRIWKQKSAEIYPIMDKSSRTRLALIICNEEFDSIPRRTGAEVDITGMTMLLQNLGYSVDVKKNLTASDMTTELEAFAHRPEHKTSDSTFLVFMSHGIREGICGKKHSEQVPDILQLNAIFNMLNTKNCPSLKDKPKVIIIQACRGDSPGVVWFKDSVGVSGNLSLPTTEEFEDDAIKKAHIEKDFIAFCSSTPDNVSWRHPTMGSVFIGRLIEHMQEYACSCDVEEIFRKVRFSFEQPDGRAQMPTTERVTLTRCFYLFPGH
Briefly: Inhibition of human recombinant caspase 1.

A further data set deals with T2, Caspase-3 (Homo sapiens, UniProt P42574).
T2 sequence (P42574 whole entry): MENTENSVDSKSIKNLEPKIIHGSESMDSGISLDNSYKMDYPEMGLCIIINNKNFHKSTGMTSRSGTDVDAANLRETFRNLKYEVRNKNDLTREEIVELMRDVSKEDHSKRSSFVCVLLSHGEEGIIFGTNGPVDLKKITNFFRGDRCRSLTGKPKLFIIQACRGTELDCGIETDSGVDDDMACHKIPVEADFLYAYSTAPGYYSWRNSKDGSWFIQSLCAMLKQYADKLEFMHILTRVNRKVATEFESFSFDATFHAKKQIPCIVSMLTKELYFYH
Briefly: Inhibition of human recombinant caspase 3.

A further data set has as its target T3, Caspase-6 (Homo sapiens, UniProt P55212).
T3 sequence (P55212 whole entry): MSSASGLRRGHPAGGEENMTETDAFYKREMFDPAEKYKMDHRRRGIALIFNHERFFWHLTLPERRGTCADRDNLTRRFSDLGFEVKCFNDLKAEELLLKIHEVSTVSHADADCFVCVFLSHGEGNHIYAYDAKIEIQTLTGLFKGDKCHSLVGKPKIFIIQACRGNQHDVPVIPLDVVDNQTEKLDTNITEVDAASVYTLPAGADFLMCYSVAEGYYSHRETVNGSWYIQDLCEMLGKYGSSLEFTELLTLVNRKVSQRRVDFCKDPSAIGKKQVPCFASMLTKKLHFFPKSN
Briefly: Inhibition of human recombinant caspase 6.

The next data set addresses T4, Caspase-7 (Homo sapiens, UniProt P55210).
T4 sequence (P55210 whole entry): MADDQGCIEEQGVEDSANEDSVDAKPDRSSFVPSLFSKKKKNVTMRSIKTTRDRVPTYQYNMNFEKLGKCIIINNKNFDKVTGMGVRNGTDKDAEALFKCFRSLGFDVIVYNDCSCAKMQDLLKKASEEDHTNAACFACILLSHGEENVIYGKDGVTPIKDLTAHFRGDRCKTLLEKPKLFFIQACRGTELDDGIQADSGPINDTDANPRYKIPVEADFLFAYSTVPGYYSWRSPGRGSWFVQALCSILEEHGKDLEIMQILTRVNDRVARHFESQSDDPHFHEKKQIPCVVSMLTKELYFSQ
Briefly: Inhibition of human recombinant caspase 7.

In a further data set the target is Caspase-8 (Homo sapiens, UniProt Q14790). Put plainly: Inhibition of human recombinant caspase 8.

pIC50: −log10 of the molar value.

Experimental findings from ChEMBL document CHEMBL1146205, “Isatin sulfonamide analogs containing a Michael addition acceptor: a new class of caspase 3/7 inhibitors” (J Med Chem, 2007) are described below.

Chain of Caspase-8 (Q14790 217-374 limits assumed): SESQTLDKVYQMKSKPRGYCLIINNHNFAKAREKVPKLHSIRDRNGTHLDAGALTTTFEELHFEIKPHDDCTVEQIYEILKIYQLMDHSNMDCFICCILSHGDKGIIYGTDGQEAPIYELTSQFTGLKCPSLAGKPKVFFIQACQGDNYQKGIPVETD
Chain of Caspase-8 (Q14790 385-479 limits assumed): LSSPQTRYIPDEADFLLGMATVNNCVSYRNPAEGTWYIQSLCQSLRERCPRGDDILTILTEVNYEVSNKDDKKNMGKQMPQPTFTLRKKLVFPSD

As a reminder, the logP is the decadic logarithm of the partition coefficient of the neutral form, usually between octanol and water. Broadly, the pIC50 is the IC50 on a negative log10 scale, so that one unit is a factor of ten. Regarding `N#CC(C#N)=C1C(=O)N(Cc2ccc(O)cc2)c2ccc(S(=O)(=O)N3CCC[C@H]3COc3cccnc3)cc21`, the logP in data set [1] is 1.77. Moreover, the pIC50 was 5.57 on Caspase-1; 8.11 at Caspase-3; 6.19 at Caspase-6; 7.55 at Caspase-7; < 4.30 at Caspase-8.

With `N#CC(C#N)=C1C(=O)N(Cc2ccccc2)c2ccc(S(=O)(=O)N3CCC[C@H]3COc3ccccc3)cc21`, the lipophilicity (logP) in data set [1] was determined as 3.5. For the same compound, the negative-log IC50 (pIC50) at Caspase-1 is 5.21; on Caspase-3, 7.56; at Caspase-6 it was 6.04; at Caspase-7, 7.29; on Caspase-8 it was < 4.30.

As for `N#CC(C#N)=C1C(=O)N(Cc2ccccc2)c2ccc(S(=O)(=O)N3CCC[C@H]3COc3cccnc3)cc21`, in data set [1], the log partition coefficient (logP) was 2.45. Further, the negative logarithm of the IC50 (pIC50) was 5.49 on Caspase-1; 8.12 on Caspase-3; 6.08 on Caspase-6; 7.48 at Caspase-7; < 4.30 at Caspase-8.

Compound `N#CC(C#N)=C1C(=O)Nc2ccc(S(=O)(=O)N3CCC[C@H]3COc3ccccc3)cc21` yielded a lipophilicity (logP) in data set [1] of 1.07. Also, the pIC50 was 5.74 on Caspase-1; 6.57 at Caspase-3; 6.39 at Caspase-6; 5.80 on Caspase-7; < 4.30 at Caspase-8.

`N#CC(C#N)=C1C(=O)N(Cc2ccc(Br)cc2)c2ccc(S(=O)(=O)N3CCC[C@H]3COc3cccnc3)cc21` showed a logP in data set [1] of 3.22. Besides, the negative logarithm of the IC50 (pIC50) at Caspase-1 was 5.47; at Caspase-3, 8.29; at Caspase-6, 6.29; at Caspase-7, 7.58; at Caspase-8, < 4.30.

The compound `N#CC(C#N)=C1C(=O)N(Cc2ccc(Br)cc2)c2ccc(S(=O)(=O)N3CCC[C@H]3COc3ccccc3)cc21` gave a lipophilicity (logP) in data set [1] of 4.28. The pIC50 was 5.24 on Caspase-1; 7.70 at Caspase-3; 6.08 on Caspase-6; 7.04 on Caspase-7; < 4.30 on Caspase-8.

`N#CC(C#N)=C1C(=O)N(Cc2ccc(O)cc2)c2ccc(S(=O)(=O)N3CCC[C@H]3COc3ccccc3)cc21`: the logP in data set [1] came out at 2.77. In addition, the pIC50 on Caspase-1 is 5.64; on Caspase-3 it was 7.50; on Caspase-6, 6.13; at Caspase-7, 6.90; on Caspase-8, < 4.30.

In the case of `O=C1C(=O)N(Cc2ccc(OCCF)cc2)c2ccc(S(=O)(=O)N3CCC[C@H]3COc3ccccc3)cc21`, the lipophilicity (logP) in data set [1] turned out to be 4.19.

In turn, `O=C1C(=O)N(Cc2ccc(Br)cc2)c2ccc(S(=O)(=O)N3CCC[C@H]3COc3cccnc3)cc21` registered a lipophilicity (logP) in data set [1] of 3.76. Further, the negative logarithm of the IC50 (pIC50) on Caspase-1 was < 4.82; at Caspase-3, 8.44; on Caspase-6, 5.30; at Caspase-7, 8.18; at Caspase-8, < 4.30.

In the case of `COc1ccc(CN2C(=O)C(=C(C#N)C#N)c3cc(S(=O)(=O)N4CCC[C@H]4COc4cccnc4)ccc32)cc1`, the log partition coefficient (logP) in data set [1] stood at 2.36. Besides, the negative-log IC50 (pIC50) on Caspase-1 is 5.41; on Caspase-3 it was 8.11; at Caspase-6 it was 6.21; at Caspase-7, 7.53; on Caspase-8, < 4.30.

In data set [1], `CN1C(=O)C(=C(C#N)C#N)c2cc(S(=O)(=O)N3CCC[C@H]3COc3ccccc3)ccc21` displayed a log partition coefficient (logP) of 1.71. Besides, the pIC50 is 5.55 on Caspase-1; 6.92 on Caspase-3; 6.16 on Caspase-6; 6.11 at Caspase-7; < 4.30 at Caspase-8.

Take `O=C1C(=O)N(Cc2ccc(O)cc2)c2ccc(S(=O)(=O)N3CCC[C@H]3COc3cccnc3)cc21`: the logP in data set [1] stood at 2.25. Moreover, the pIC50 on Caspase-1 was < 4.82; on Caspase-3, 8.41; at Caspase-6, 5.02; at Caspase-7, 7.93; on Caspase-8 it was < 4.30.

In data set [1], `O=C1C(=O)N(Cc2ccc(Br)cc2)c2ccc(S(=O)(=O)N3CCC[C@H]3COc3ccccc3)cc21` yielded a logP of 4.82. For the same compound, the pIC50 was < 4.82 at Caspase-1; 8.01 on Caspase-3; 5.05 at Caspase-6; 7.46 on Caspase-7; < 4.30 at Caspase-8.
